Patent US9468209B2, “Method for eradicating weeds with derivatives of 3-acetyl-5-sec-butyl-4-hydroxy-3-pyrrolin-2-one” (priority 2012, dated 2016)

Assays:
Test in all cases: Leaf piece damage test
Assay type in all cases: in vivo
Design in all cases: key: 4: The leaf completely dead; 3: Two third of the leaf withered; 2: One half of the leaf withered; 1: Only edge of the leaf withered; 0: Not damage at all
Conditions in all cases: 50 μg/mL, 4 days
Acalypha australis = tested on: Acalypha australis
Protocol: (§1) Compounds 7, 14, 15, 16, 40, 45, 48 and 53 were dissolved individually in small amount of methanol, and diluted with distilled water to concentration of 50 μg/mL. Methanol water solution and pure water were used as control. A piece of 5 mm leaf was taken from the second leaf of weed sample and was treated with the solution three times. 5 pieces of the leaf were prepared for each treatment. The damage data were collected 4 days later. The measurement of damage level is described in the Table 9.
(§2) The measurement of the plant damage was calculated by the formula: Damage Index=Σ(damage level×number of plants)×100/4/number of plants in each treatment.

[1] = tested on: Japanese false bindweed (Calystegia hederacea)
Protocol: as §1, §2

Keng stiffgrass = tested on: Keng stiffgrass
Protocol: as §1, §2

Plantago asiatica = tested on: Plantago asiatica
Protocol: as §1, §2

Dichondra repens = tested on: Dichondra repens
Protocol: as §1, §2

Lamium amplexicaule = tested on: Lamium amplexicaule
Protocol: as §1, §2

Abrtilon theophrasti = tested on: Abrtilon theophrasti
Protocol: as §1, §2

Malvaceae = tested on: Malvaceae
Protocol: as §1, §2

Veronica percica = tested on: Veronica percica
Protocol: as §1, §2

Humulus scandens = tested on: Humulus scandens
Protocol: as §1, §2

Japanese alopecurus = tested on: Japanese alopecurus
Protocol: as §1, §2

Pharbitis nil = tested on: Pharbitis nil
Protocol: as §1, §2

Duchesnea indica = tested on: Duchesnea indica
Protocol: as §1, §2

[2] = tested on: Pigweed (Amaranthus spinosus)
Protocol: as §1, §2

[3] = tested on: Redroot pigweed (Amaramthus retroflexus)
Protocol: as §1, §2

[4] = tested on: Alligator weed (Alternanthera philoxeroides)
Protocol: as §1, §2

Rumex dentatus = tested on: Rumex dentatus
Protocol: as §1, §2

Cyperus rotundus = tested on: Cyperus rotundus
Protocol: as §1, §2

Eclipta prostrata = tested on: Eclipta prostrata
Protocol: as §1, §2

Equal alopecurus = tested on: Equal alopecurus
Protocol: as §1, §2

Chenopodium serotinum = tested on: Chenopodium serotinum
Protocol: as §1, §2

Mosla scabra = tested on: Mosla scabra
Protocol: as §1, §2

SMILES | Damage level (Acalypha australis) | Damage level [1] | Damage level (Keng stiffgrass) | Damage level (Plantago asiatica) | Damage level (Dichondra repens) | Damage level (Lamium amplexicaule) | Damage level (Abrtilon theophrasti) | Damage level (Malvaceae) | Damage level (Veronica percica) | Damage level (Humulus scandens) | Damage level (Japanese alopecurus) | Damage level (Pharbitis nil) | Damage level (Duchesnea indica) | Damage level [2] | Damage level [3] | Damage level [4] | Damage level (Rumex dentatus) | Damage level (Cyperus rotundus) | Damage level (Eclipta prostrata) | Damage level (Equal alopecurus) | other results
CCCCC1NC(=O)C(C(C)=O)=C1O (stereo not shown) [Compound 14] | 2 | 3 | 3 | 2 | 2 | 2 | 2 | 2 | 2 | 2 | 3 | 2 | 2 | 2 | 2 | 3 | 2 | 2 | 3 | 3 | Damage level (Chenopodium serotinum): 2; Damage level (Mosla scabra): 2
CCCCCC1NC(=O)C(C(C)=O)=C1O (stereo not shown) [Compound 15] | 2 | 3 | 3 | 3 | 2 | 3 | 2 | 2 | 2 | 2 | 3 | 3 | 3 | 2 | 2 | 2 | 2 | 2 | 4 | 3 | Damage level (Chenopodium serotinum): 2; Damage level (Mosla scabra): 2
CCCCCCC1NC(=O)C(C(C)=O)=C1O (stereo not shown) [Compound 16] | 2 | 4 | 3 | 2 | 3 | 2 | 3 | 2 | 2 | 3 | 3 | 2 | 2 | 2 | 3 | 3 | 2 | 2 | 3 | 3 | Damage level (Chenopodium serotinum): 2; Damage level (Mosla scabra): 2
CCCC(Cl)C1NC(=O)C(C(C)=O)=C1O (stereo not shown) [Compound 40] | 3 | 3 | 3 | 3 | 3 | 3 | 3 | 2 | 3 | 3 | 3 | 2 | 2 | 2 | 3 | 3 | 2 | 2 | 3 | 3 | Damage level (Chenopodium serotinum): 2; Damage level (Mosla scabra): 2
CCC(C)C1NC(=O)C(C(=O)CCF)=C1O (stereo not shown) [Compound 44] | 3 | 4 | 3 | 3 | 2 | 3 | 2 | 2 | 3 | 2 | 4 | 3 | 3 | 3 | 2 | 4 | 3 | 2 | 4 | 3 | Damage level (Chenopodium serotinum): 3; Damage level (Mosla scabra): 2
CCC(C)C1NC(=O)C(C(=O)CCc2cc(Cl)cc(Cl)c2)=C1O (stereo not shown) [Compound 48] | 3 | 4 | 4 | 2 | 3 | 2 | 3 | 2 | 3 | 3 | 4 | 3 | 3 | 3 | 2 | 4 | 3 | 2 | 4 | 4 | Damage level (Chenopodium serotinum): 3; Damage level (Mosla scabra): 2
CCCC(C#N)C1NC(=O)C(=C(C)O)C1=O (stereo not shown) [Compound 53] | 2 | 4 | 4 | 2 | 2 | 2 | 3 | 3 | 3 | 2 | 3 | 3 | 3 | 3 | 3 | 3 | 2 | 2 | 4 | 4 | Damage level (Chenopodium serotinum): 3; Damage level (Mosla scabra): 2
